In PubChem BioAssay (NCI) one finds TGI data, which are given here for 8 compounds.

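Test compounds were applied to cells in 96-well plates for 48 hours at 5 doses. Definition used: TGI = concentration required for complete inhibition of growth.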

What all share (experiment): NCI anticancer screen, dose series, 48 h
Experiment [1] relates to HOP-92 NSCLC.
For experiment [2], the system named is A498 renal.
Experiment [3] concerns SNB-19 CNS.
Experiment [4] deals with HCT-116 colon.
The test system of experiment [5] is OVCAR-5 ovarian.
Experiment [6] has as its system RPMI-8226 leukemia.
For experiment [7], the system named is SN12C renal.
In experiment [8] the test system is NCI-H460 lung.
For experiment [9], the system named is OVCAR-4 ovarian.
In experiment [10] the test system is NCI-H23 lung.
Experiment [11] relates to SR leukemia.
Experiment [12] deals with NCI-H522 lung.
For experiment [13], the system named is SW-620 colon.
Experiment [14] has as its system OVCAR-3 ovarian.
The test system of experiment [15] is SK-MEL-2 melanoma.
For experiment [16], the system named is HT29 colon.
Experiment [17] concerns SNB-75 CNS.
For experiment [18], the system named is A549 NSCLC.
Experiment [19] relates to SF-539 CNS.

On to `CN=c1nc2sc3c(c2c(NC(=S)NC)s1)CCCC3`, for which the TGI in experiment [1], in experiment [2], in [3], in [4], in [5] and in experiment [6] was > 100 µM in each case. Also, the TGI in experiment [7], in experiment [8], in experiment [9], in experiment [10], in experiment [11] and in [12] was > 100 µM throughout. Also, the TGI in experiment [13], in experiment [14], in [15] and in experiment [16] was > 100 µM each time.

For `CC1(C)CC(=O)c2[nH]c3ccccc3c2CC(=O)NCCc2cn1cn2`, the TGI in experiment [1], in experiment [2], in [3], in experiment [4], in [17] and in experiment [18] was > 100 µM throughout. The TGI in [5], in experiment [7], in experiment [8], in [9], in experiment [10] and in experiment [11] was > 100 µM each time. The TGI in experiment [19], in experiment [12], in experiment [13], in experiment [14], in experiment [15] and in experiment [16] was > 100 µM each time.

As to `Nc1ccc(-c2nc3cc(F)ccc3s2)cc1Cl`, the TGI in experiment [1] was > 78.9 µM; in experiment [2], > 39.3 µM; in [3], > 100 µM; in experiment [4], > 100 µM; in experiment [17] it was 51.8 µM; in experiment [18], > 100 µM. The TGI is 28.8 µM in [5]; > 100 µM in experiment [6]; > 71.8 µM in experiment [7]; 25 µM in [8]; > 100 µM in experiment [9]; 9.4 µM in experiment [11]. Moreover, the TGI in experiment [19] is 45.1 µM; in experiment [12], > 100 µM; in experiment [13] it was > 100 µM; in [14], 45.6 µM; in [15] it was > 100 µM; in [16] it was > 100 µM.

In the case of `CC1(c2cccs2)CC(c2cccs2)=C(C#N)C(=C(C#N)C#N)N1` (stereo not given), the TGI came out at 30.8 µM in experiment [1]; 35.8 µM in experiment [2]; 36.6 µM in experiment [3]; 31.6 µM in experiment [4]; 33.2 µM in experiment [17]; 48.6 µM in experiment [18]. Further, the TGI in [5] stood at 39.3 µM; in experiment [6], 61.5 µM; in experiment [7], 35.6 µM; in [8], 43.9 µM; in experiment [9], 32.3 µM; in experiment [10], 38.8 µM. Moreover, the TGI in experiment [11] is > 100 µM; in experiment [19], 70 µM; in experiment [13], 43.7 µM; in [14], 32.1 µM; in experiment [15], 37.4 µM; in experiment [16] it was 34.4 µM.

Regarding `CCN(CC)CC1CCCCCCCCCCC1=O` (stereo not given), the TGI in experiment [2], in [3], in experiment [4], in experiment [17], in experiment [18] and in experiment [5] was > 100 µM in each case. Further, the TGI in experiment [6], in experiment [7], in experiment [8], in [9], in experiment [10] and in experiment [11] was > 100 µM each time. Besides, the TGI in [12], in [13], in experiment [14], in experiment [15] and in experiment [16] was > 100 µM throughout.

With `O=C(C=P(c1ccccc1)(c1ccccc1)c1ccccc1)c1ccc(-c2cccc([N+](=O)[O-])c2)s1`, the TGI in [1] was 81.4 µM; in experiment [2] it was 81.9 µM; in [3], > 100 µM; in [4], > 100 µM; in experiment [17] it was 76.3 µM; in [18], > 100 µM. Also, the TGI in experiment [5] was > 100 µM; in [6], 54.9 µM; in [7] it was > 100 µM; in experiment [8], > 100 µM; in experiment [9], > 100 µM; in experiment [10] it was > 100 µM. In addition, the TGI in [11], in [19], in [12], in [13], in experiment [14] and in experiment [16] was > 100 µM each time.

Turning to `COc1ccc(N2C(=O)/C(=C(\C)c3cc4ccccc4oc3=O)N=C2c2cc([N+](=O)[O-])ccc2Cl)cc1`, the TGI in experiment [2] is 82.6 µM; in [3], > 100 µM; in experiment [4], > 100 µM; in experiment [17] it was > 100 µM; in [18], > 100 µM; in experiment [5], > 100 µM. In addition, the TGI in experiment [6], in experiment [7], in experiment [8], in experiment [9], in experiment [10] and in [11] was > 100 µM throughout. Also, the TGI in [19] is > 100 µM; in experiment [12], 39.1 µM; in experiment [13] it was > 100 µM; in [14], > 100 µM; in [15] it was > 100 µM; in experiment [16] it was > 100 µM.

On to `Nc1ccc(Oc2ccc(C34CC5CC6C3CC3CC4C(C5)C6(c4ccc(Oc5ccc(N)cc5)cc4)C3)cc2)cc1`, for which the TGI in experiment [1] was 11.7 µM; in experiment [2] it was 55.7 µM; in [3] it was > 61.4 µM; in [4], 41.1 µM; in experiment [18] it was > 83.8 µM; in experiment [5], > 100 µM. The TGI in [6] is 47.5 µM; in experiment [7], > 100 µM; in [8], 61.2 µM; in experiment [9], > 100 µM; in experiment [10], > 82.9 µM; in [11], 40.1 µM. In addition, the TGI in experiment [12] was 47.7 µM; in experiment [13], > 100 µM; in experiment [14], 29.7 µM; in experiment [15], 23.6 µM; in experiment [16], > 100 µM.
